This passage reports IC50 results from US9255107B2 (NANJING SANHOME PHARMACEUTICAL CO., LTD., priority 2012, dated 2016).

In assay [1] the test system is K562 leukemia cells. Put plainly: MTT assay, in vitro inhibitory activity on cells. In kind it is cell-based. The settings on record: Homo sapiens, typically 48 hours, read-out: IC50 K562 Chronic myelogenous leukemia cells. The text has this:
(§1) In this example, MTT assay was used to detect in vitro inhibitory activity of the compounds prepared according to the above examples on the cells.
(§2) Dimethyl sulfoxide (DMSO) is capable of dissolving formazan in cells, and absorbance value can be measured at a wavelength of 490 nm by an enzyme-linked immunometric meter, which reflects the number of living cells. Within a certain range of the number of cells, the amount of MTT crystals formed is proportional to the number of living cells.
(§3) 2. Culturing in a 37° C., 5% CO2 incubator and keeping the cells adhering to the walls of the wells.
(§4) 4. Carefully removing the supernatant, gently washing with PBS and discarding the supernatant again.
(§5) 6. Terminating culturing and carefully discarding the medium in each well. 7. Adding 150 μl dimethyl sulfoxide into each well, shaking for 10 minutes at low speed in a shaker, to make crystals fully dissolved.
(§6) 8. Measuring the absorbance of each well at 490 nm by an enzyme-linked immunometric meter.

In assay [2] the test system is MDA-MB-231 human breast cancer cells. As to the kind of experiment: MTT assay, in vitro inhibitory activity on cells. Type of assay: cell-based. The conditions noted are these: typically 48 hours.
Source text: as §1, §2, §3, §4, §5, §6

For assay [3], the system named is Ovcar-3 human ovarian cancer cells. As to the kind of experiment: MTT assay, in vitro inhibitory activity on cells. The conditions noted are these: typically 48 hours. Type of assay: cell-based.
Source text: as §1, §2, §3, §4, §5, §6

Assay [4] has as its system Saos-2 human osteosarcoma cells. Put plainly: MTT assay, in vitro inhibitory activity on cells. Type of assay: cell-based. The conditions noted are these: typically 48 hours.
Source text: as §1, §2, §3, §4, §5, §6

Assay [5] addresses Human ABL1 (T315I) (Homo sapiens (Human), UniProt P00519, T315I). As to the kind of experiment: ABL1 (T315I) kinase activity assay ([γ-33P] ATP, Abltide). Type of assay: biochemical. The settings on record: 1.0 μM ATP, 5.0 μM Abltide, 120 minutes. The procedure:
In the experimental example, the compounds prepared according the examples of the present invention were tested for the ability to inhibit ABL (T315I) kinase activity. […] Kinase activity was determined according to the manufacturer's instructions. Peptide substrate is Abltide ([…]), purchased from Millipore Corporation, USA. Ion exchange chromatography paper P81 (ion exchange filter paper) was purchased from Whatman Company, UK. [γ-33P] ATP was purchased from Perkin Elmer Company. […] [γ-33P] ATP was added at room temperature, with final concentration of 1.0 μM, and the reaction was performed for 120 minutes. 20 μl aliquots were transferred onto the ion exchange chromatography paper P81. […] Finally, γ-33P radioactivity was measured.

Assay [6] concerns MEG-01 human megakaryocyte leukemia cells. Put plainly: CellTiter-Glo cell viability assay, Bcr-Abl-positive cells. The conditions noted are these: MEG-01, 72 h, read-out: IC50 MEG-01.
Protocol: (§7) The resulting solutions were 10-fold serially diluted and formulated into 10 concentrations.
(§8) MEG-01 human megakaryocyte leukemia cells and KU812 human peripheral blood basophilic leukocytes, purchased from ATCC Company, USA.
(§9) The peripheral wells were filled with sterile PBS;
(§10) 2) Adding 10 μl of 5× concentration gradient of the tested compound, and adding 10 μl medium containing 0.5% DMSO into the blank control wells, in which the concentration of DMSO was 0.1%;
(§11) 3) Incubating the cells in a 37° C./5% CO2 incubator;
(§12) 4) Adding 30 μl Cell Titer-Glo® Reagent 72 hours after adding the compound;
(§13) 5) Incubating in a 37° C./5% CO2 incubator for 10 minutes; and centrifuging at low speed and then measuring chemiluminescence values on a PHERAstar microplate reader.
(§14) 6) Calculating cell viability (Cell Viability=(RLUsample/RLUnegative)×100%, wherein RLUsample was RLU (Relative Light Units) value of the well added with the compound and RLUnegative was RLU value of the well without the compound (i.e., cell control, which was treated with the same concentration of DMSO)). Data were processed by using a four-parameter logistic fitting module in Graphpad Prism 4.0 software to calculate IC50.
For assay [7], the system named is KU812 human peripheral blood basophilic leukocytes. The assay is described as above. The settings on record: KU812, 72 h, read-out: IC50 KU812.
Protocol: as §7, §8, §9, §10, §11, §12, §13, §14

pIC50: −log10 of the molar value.

For the compound `Cc1ccc(C(=O)Nc2ccc(CN3CCN(C)CC3)c(C(F)(F)F)c2)cc1C#Cc1cnc2[nH]ccc2n1` [Example 3], the pIC50 in assay [1] was 5.20; in assay [2] it was 6.74; in assay [3], 5.55; in assay [4], 6.42; in assay [5], 8.67; in assay [6], 8.86. The pIC50 in assay [7] is 9.40.
Consider `CNc1nc2cc(C#Cc3cc(C(=O)Nc4ccc(CN5CCN(C)CC5)c(C(F)(F)F)c4)ccc3C)ccn2n1` [Example 5, 3-((2-methylamino-[1,2,4]triazolo[1,5-a]pyridin-7-yl)ethynyl)-4-methyl-N-[4-((4-methylpiperazin-1-yl)methyl)-3-trifluoromethylphenyl]benzamide], for which the negative logarithm of the IC50 (pIC50) is 5.17 in assay [1]; 5.67 in assay [2]; 8.64 in assay [5]; 8.75 in assay [6]; 9.20 in assay [7].
`Cc1ccc(C(=O)Nc2ccc(CN3CCN(C)CC3)c(C(F)(F)F)c2)cc1C#Cc1ccc(-c2ncc[nH]2)nc1` [Example 19, 4-methyl-3-((2-(1H-imidazol-2-yl)pyridin-5-yl)ethynyl)-N-[4-((4-methylpiperazin-1-yl)methyl)-3-trifluoromethylphenyl]benzamide]: the pIC50 in assay [1] was 5.34; in assay [2], 5.52; in assay [5], 8.17.
Consider `Cc1ccc(C(=O)Nc2ccc(CN3CCN(C)CC3)c(C(F)(F)F)c2)cc1C#Cc1ccc(-c2ncc(C(F)(F)F)[nH]2)nc1` [Example 18, 4-methyl-3-((2-(5-trifluoromethyl-1H-imidazol-2-yl)pyridin-5-yl)ethynyl)-N-[4-((4-methylpiperazin-1-yl)methyl)-3-trifluoromethylphenyl]benzamide], for which the negative logarithm of the IC50 (pIC50) is 5.84 in assay [1] and 7.24 in assay [5].
On to `Cc1ccc(C(=O)Nc2ccc(CN3CCN(C)CC3)c(C(F)(F)F)c2)cc1C#Cc1cn(C)c(-c2ncc([N+](=O)[O-])[nH]2)n1` [Example 11, 4-methyl-3-((1-methyl-5′-nitro-1H,1′H-[2,2′-diimidazol]-4-yl)ethynyl)-N-[4-((4-methylpiperazin-1-yl)methyl)-3-trifluoromethylphenyl]benzamide], for which the pIC50 in assay [1] was 5.50; in assay [2], 6.44; in assay [3], 5.00; in assay [4] it was 5.57.
For `Cc1ccc(C(=O)Nc2ccc(CN3CCN(C)CC3)c(C(F)(F)F)c2)cc1C#Cc1cn(C)c(-c2ncc(C(F)(F)F)[nH]2)n1` [Example 9, 4-methyl-3-((1-methyl-5′-trifluoromethyl-1H,1′H-[2,2′-diimidazol]-4-yl)ethynyl)-N-[4-((4-methylpiperazin-1-yl)methyl)-3-trifluoromethylphenyl]benzamide], the pIC50 in assay [1] was 6.48; in assay [2] it was 5.29; in assay [3], 5.19; in assay [4], 5.94; in assay [5] it was 8.19.
For the compound `Cc1ccc(C(=O)Nc2ccc(CN3CCN(C)CC3)c(C(F)(F)F)c2)cc1C#Cc1ccn2nc(N(C)C)nc2c1` [Example 6, 3-((2-dimethylamino-[1,2,4]triazolo[1,5-a]pyridin-7-yl)ethynyl)-4-methyl-N-[4-((4-methylpiperazin-1-yl)methyl)-3-trifluoromethylphenyl]benzamide], the negative logarithm of the IC50 (pIC50) was 5.38 in assay [1] and 7.40 in assay [5].
Regarding `Cc1cnc(-c2nc(C#Cc3cc(C(=O)Nc4ccc(CN5CCN(CCO)CC5)c(C(F)(F)F)c4)ccc3C)cn2C)[nH]1` [Example 12, 4-methyl-3-((1-methyl-5′-methyl-1H,1′H-[2,2′-diimidazol]-4-yl)ethynyl)-N-[4-((4-hydroxyethylpiperazin-1-yl)methyl)-3-trifluoromethylphenyl]benzamide], the pIC50 in assay [1] was 5.64; in assay [2], 5.90; in assay [3], 5.39; in assay [4], 5.24.
Consider `Cc1ccc(C(=O)Nc2ccc(CN3CCN(C)CC3)c(C(F)(F)F)c2)cc1C#Cc1ccn2nc(N)nc2c1` [Example 4, 3-((2-amino-[1,2,4]triazolo[1,5-a]pyridin-7-yl)ethynyl)-4-methyl-N-[4-((4-methylpiperazin-1-yl)methyl)-3-trifluoromethylphenyl]benzamide], for which the negative logarithm of the IC50 (pIC50) in assay [1] was 4.87; in assay [2], 5.97; in assay [6] it was 8.48; in assay [7] it was 9.10.
